Test results as given in US20020111386A1, “Apparatus for pulmonary delivery of drugs with simultaneous liquid lavage and ventilation” (priority 1989, published 2002).

System: anesthetized and tracheotomized young cats
Test: Pulmonary administration of drugs dispersed in PFC liquid during liquid ventilation: cardiovascular and airway smooth muscle effects
Format: in vivo, cat
Settings: for effect on airway on addition to perfluorocarbon ventilation liquid: added to a perfluorocarbon ventilation liquid
Protocol: When testing the dose-dependency effect of the pulmonary administration of acetylcholine [ACh], the effect after the administration of the drug (expressed as a percentage of the baseline), as a function of the concentration of the drug, was monitored.
Here, the ACh was dispersed in the PFC liquid medium. The initial amount of ACh dispersed in the PFC liquid was 0.01 mg per each kilogram of the laboratory animal's body weight.
(§1) Each of the animals tested had at least one of the following parameters recorded before, during and after the pulmonary administration of the drug: (a) heart rate (bpm), (b) mean arterial pressure (mm Hg), and (c) tracheal pressure (cm water). The averages for each of these recorded parameters were then calculated, depending upon the number of cats tested. These calculated values are plotted on the graph in FIG. 35.
In addition to the above, the following parameters were also monitored and/or controlled: tidal volume, inspiratory and expiratory liquid flow rate, arterial chemistry, pulmonary compliance and resistance, and/or breathing frequency.
For each incremental increase, the animals tested had at least one of the aforementioned parameters recorded before and after the pulmonary administration of the drug.
Also for each incremental increase, the averages for each recorded parameter were calculated and plotted on the graph in FIG. 35.
Another way in which the effect of the pulmonary administration of ACh was tested was by monitoring carotid pressure, as a function of time, before, during and after the pulmonary administration of the drug. Here, 0.6 mg/kg of Ach was dispersed in the PFC liquid medium.
Yet another way in which the effect of the pulmonary administration of ACh was tested was by monitoring tracheal pressure, as a function of time, before, during and after the pulmonary administration of the drug.
Here, 0.6 mg/kg of ACh was dispersed in the PFC liquid medium.
When testing the dose-dependency effect of the pulmonary administration of epinephrine [Epi], the effect after the administration of the drug (expressed as a percentage of the baseline), as a function of the concentration of the drug, was monitored.
Here, the Epi was dispersed in the PFC liquid medium. The initial amount of Epi dispersed in the PFC liquid was 0.01 mg Per each kilogram of the laboratory animal's body weight.
as §1, with “before” for “before, during”, “36.” for “35.”
Also for each incremental increase, the averages for each recorded parameter were calculated and plotted on the graph in FIG. 36.
Another way in which the effect of the pulmonary administration of Epi was tested was by monitoring the change in mean arterial pressure and heart rate resulting from drug delivery.
Here, 0.50 mg/kg of Epi was dispersed in the PFC liquid medium.
When testing the dose-dependency effect of the pulmonary administration of priscoline [P], the effect after the administration of the drug (expressed as a percentage of the baseline), as a function of the concentration of the drug, was monitored.
Here, the P was dispersed in the PFC liquid medium. The initial amount of P dispersed in the PFC liquid was 4 mg.
Each of the animals tested weighed approximately 3 kg. Each of these test animals had at least one of the following parameters recorded before and after the pulmonary administration of the drug: (a) heart rate (bpm), (b) mean arterial pressure (mm Hg), and (c) right ventricular pressure.
The averages for each of the aforementioned recorded parameters were then calculated, depending upon the number of cats tested. These calculated values are plotted on the graph in FIG. 37. […]

[1] = Epi 0.01 to 1.0 mg/kg in inspired PFC liquid, FIG. 36
[2] = P 4 mg to 12 mg in inspired PFC liquid, animals approx. 3 kg, FIG. 37

CC(=O)OCC[N+](C)(C)C [ACh, acetylcholine]
increase in tracheal pressure after drug administration (0.6 mg/kg ACh in PFC liquid): about 6 mm Hg
total time necessary to decrease the carotid pressure by about 40 mm Hg (0.6 mg/kg ACh in PFC liquid): about 10 seconds
total time necessary to increase the tracheal pressure (cm water) by about 5 mm Hg (0.6 mg/kg ACh in PFC liquid): about 20 seconds
decrease in carotid pressure after drug administration (0.6 mg/kg ACh in PFC liquid, via endotracheal tube): about 40 mm Hg

CNC[C@H](O)c1ccc(O)c(O)c1 [Epi, epinephrine]
decrease in tracheal pressure after drug administration (0.50 mg/kg Epi in PFC liquid): 31%
increase in heart rate after drug administration (0.50 mg/kg Epi in PFC liquid): 33%
heart rate, dose-dependent response (percentage of baseline) [1]: increases
mean arterial pressure, dose-dependent response (percentage of baseline) [1]: increases
peak tracheal pressure, dose-dependent response (percentage of baseline) [1]: decrease
effect on airway on addition to perfluorocarbon ventilation liquid: Airway dilation

c1ccc(CC2=NCCN2)cc1 [P, priscoline]
decrease in carotid pressure after drug administration (12 mg P in PFC liquid): about 30 mm Hg
onset of decrease in carotid pressure after administration (12 mg P in PFC liquid): almost instantaneously
total time necessary to decrease the carotid pressure by about 30 mm Hg (12 mg P in PFC liquid): about 10 seconds
heart rate, dose-dependent response (percentage of baseline) [2]: remained fairly constant
mean arterial pressure, dose-dependent response (percentage of baseline) [2]: decreases
right ventricular pressure, dose-dependent response (percentage of baseline) [2]: decreases

CC(C)NCC(O)c1ccc(O)c(O)c1 (centres unmarked) [isoproterenol]
effect on airway on addition to perfluorocarbon ventilation liquid: Airway dilation
